Read-outs that look alike come from different tables or passages of the source.
Tests used:
[1] = biological target: T1, BSEP (Rattus norvegicus, UniProt O70127); assay: Inhibition of BSEP activity (transport of glycocholate) in rat hepatocytes
T1 sequence (O70127 1-1321): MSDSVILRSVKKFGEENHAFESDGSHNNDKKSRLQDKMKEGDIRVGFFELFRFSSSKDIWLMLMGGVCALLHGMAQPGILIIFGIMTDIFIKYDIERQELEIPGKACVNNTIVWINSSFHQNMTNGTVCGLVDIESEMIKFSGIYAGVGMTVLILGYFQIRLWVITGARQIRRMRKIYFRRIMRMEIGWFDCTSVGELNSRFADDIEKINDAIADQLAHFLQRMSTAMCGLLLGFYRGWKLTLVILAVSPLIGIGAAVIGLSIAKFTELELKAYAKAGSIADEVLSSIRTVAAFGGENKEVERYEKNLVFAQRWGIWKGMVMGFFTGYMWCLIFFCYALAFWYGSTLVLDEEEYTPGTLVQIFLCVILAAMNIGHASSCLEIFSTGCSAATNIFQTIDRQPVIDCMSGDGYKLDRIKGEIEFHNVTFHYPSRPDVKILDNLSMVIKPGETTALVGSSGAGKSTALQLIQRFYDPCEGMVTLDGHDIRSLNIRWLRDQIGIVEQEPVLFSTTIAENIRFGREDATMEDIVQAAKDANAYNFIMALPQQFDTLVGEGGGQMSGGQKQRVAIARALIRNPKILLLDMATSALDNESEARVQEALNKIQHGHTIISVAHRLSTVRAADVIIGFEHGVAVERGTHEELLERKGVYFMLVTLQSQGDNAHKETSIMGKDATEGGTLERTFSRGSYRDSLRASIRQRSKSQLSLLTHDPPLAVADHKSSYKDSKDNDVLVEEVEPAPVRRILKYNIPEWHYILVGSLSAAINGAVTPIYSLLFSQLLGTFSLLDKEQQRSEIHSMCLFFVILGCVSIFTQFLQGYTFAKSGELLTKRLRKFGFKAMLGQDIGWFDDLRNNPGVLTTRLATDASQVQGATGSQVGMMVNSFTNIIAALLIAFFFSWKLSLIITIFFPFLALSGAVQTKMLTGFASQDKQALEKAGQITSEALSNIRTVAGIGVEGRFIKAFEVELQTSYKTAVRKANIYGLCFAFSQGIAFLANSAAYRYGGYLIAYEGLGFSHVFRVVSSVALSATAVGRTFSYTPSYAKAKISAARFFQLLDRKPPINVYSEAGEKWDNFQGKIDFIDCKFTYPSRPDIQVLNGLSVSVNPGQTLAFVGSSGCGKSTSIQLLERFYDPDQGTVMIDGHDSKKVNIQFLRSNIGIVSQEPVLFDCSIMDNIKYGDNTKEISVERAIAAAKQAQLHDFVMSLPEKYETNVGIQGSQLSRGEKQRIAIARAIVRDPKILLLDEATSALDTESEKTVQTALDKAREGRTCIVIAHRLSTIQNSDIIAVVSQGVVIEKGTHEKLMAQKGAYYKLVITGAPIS

[2] = biological target: T2, BSEP (Macaca fascicularis, UniProt D2CFL3); assay: in vitro; details: monkey, hepatocytes in suspension, probe glycocholate
[3] = biological target: T2, BSEP; assay: in vitro; details: monkey, hepatocytes in suspension, probe taurocholate
[4] = biological target: T3, BSEP (Canis lupus familiaris, UniProt B8K1W2); assay: Inhibition of BSEP activity (transport of taurocholate) in dog hepatocytes
T3 sequence (B8K1W2 1-1325): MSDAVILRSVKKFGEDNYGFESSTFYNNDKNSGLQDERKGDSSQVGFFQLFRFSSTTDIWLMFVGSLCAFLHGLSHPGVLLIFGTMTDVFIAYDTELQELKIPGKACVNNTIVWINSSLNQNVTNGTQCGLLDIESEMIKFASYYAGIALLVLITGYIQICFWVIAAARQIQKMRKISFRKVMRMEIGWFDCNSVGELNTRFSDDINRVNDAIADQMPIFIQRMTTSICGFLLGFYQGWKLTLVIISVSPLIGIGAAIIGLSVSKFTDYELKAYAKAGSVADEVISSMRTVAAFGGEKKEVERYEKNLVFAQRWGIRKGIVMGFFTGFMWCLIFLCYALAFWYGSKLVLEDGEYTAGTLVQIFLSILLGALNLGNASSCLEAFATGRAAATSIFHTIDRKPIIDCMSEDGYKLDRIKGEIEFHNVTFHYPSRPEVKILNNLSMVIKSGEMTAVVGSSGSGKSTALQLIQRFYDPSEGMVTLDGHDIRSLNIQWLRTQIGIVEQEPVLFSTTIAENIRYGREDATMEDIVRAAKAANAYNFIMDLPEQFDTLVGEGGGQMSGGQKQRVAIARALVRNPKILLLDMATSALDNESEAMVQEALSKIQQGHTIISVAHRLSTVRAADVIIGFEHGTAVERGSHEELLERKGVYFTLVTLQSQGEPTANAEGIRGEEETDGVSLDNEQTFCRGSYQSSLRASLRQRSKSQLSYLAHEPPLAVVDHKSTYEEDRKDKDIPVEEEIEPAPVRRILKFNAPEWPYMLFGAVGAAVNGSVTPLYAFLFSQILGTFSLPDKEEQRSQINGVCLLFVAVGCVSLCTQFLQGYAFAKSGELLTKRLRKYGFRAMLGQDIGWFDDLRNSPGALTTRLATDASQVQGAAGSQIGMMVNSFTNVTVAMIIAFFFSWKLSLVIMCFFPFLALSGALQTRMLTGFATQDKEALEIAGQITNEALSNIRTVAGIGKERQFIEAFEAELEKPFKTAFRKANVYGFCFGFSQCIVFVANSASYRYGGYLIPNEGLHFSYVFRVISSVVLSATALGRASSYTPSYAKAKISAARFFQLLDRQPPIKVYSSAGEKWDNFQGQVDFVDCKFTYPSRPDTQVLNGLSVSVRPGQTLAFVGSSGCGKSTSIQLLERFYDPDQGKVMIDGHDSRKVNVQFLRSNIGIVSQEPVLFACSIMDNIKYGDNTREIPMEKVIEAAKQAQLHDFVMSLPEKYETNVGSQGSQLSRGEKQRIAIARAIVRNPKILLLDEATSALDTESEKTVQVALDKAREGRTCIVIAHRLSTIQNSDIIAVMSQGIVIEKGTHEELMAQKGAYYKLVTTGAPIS

[5] = biological target: BSEP (Homo sapiens, UniProt O95342); assay: in vitro
[6] = hepatocytes in suspension, probe glycocholate
[7] = hepatocytes in suspension, probe taurocholate

T2 sequence (D2CFL3 1-1323): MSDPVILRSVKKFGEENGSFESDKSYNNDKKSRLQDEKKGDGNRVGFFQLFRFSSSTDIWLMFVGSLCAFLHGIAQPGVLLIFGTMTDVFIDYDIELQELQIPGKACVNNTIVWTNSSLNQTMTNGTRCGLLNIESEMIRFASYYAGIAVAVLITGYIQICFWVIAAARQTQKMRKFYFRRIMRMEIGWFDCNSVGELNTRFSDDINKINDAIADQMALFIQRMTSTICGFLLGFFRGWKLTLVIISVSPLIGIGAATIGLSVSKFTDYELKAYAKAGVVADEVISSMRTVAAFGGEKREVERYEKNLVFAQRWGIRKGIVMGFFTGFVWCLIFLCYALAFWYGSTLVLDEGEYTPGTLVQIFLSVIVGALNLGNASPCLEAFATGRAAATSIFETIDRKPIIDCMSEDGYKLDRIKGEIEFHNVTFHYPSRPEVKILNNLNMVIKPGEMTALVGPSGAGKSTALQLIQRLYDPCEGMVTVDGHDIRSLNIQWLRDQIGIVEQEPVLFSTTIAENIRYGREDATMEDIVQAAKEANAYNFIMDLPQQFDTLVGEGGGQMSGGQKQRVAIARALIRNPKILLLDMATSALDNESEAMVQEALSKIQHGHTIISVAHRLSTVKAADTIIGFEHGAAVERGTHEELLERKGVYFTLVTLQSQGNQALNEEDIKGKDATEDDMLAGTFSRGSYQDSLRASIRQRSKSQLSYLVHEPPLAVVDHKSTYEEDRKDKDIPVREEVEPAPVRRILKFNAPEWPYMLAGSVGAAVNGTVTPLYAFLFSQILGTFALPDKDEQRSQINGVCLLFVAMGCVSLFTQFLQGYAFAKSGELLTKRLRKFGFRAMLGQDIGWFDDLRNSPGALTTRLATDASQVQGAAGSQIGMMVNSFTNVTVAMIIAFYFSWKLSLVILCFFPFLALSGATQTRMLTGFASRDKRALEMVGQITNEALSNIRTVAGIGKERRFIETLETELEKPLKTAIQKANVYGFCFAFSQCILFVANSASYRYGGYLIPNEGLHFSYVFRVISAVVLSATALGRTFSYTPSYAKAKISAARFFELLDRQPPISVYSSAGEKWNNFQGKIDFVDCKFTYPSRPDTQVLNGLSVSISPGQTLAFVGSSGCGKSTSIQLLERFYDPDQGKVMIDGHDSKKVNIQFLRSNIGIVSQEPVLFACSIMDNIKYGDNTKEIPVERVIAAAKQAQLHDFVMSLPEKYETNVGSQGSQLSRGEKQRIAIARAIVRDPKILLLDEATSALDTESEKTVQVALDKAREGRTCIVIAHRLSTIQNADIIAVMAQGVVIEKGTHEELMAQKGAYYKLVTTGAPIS
BSEP (Homo sapiens, UniProt O95342), sequence (O95342 whole entry): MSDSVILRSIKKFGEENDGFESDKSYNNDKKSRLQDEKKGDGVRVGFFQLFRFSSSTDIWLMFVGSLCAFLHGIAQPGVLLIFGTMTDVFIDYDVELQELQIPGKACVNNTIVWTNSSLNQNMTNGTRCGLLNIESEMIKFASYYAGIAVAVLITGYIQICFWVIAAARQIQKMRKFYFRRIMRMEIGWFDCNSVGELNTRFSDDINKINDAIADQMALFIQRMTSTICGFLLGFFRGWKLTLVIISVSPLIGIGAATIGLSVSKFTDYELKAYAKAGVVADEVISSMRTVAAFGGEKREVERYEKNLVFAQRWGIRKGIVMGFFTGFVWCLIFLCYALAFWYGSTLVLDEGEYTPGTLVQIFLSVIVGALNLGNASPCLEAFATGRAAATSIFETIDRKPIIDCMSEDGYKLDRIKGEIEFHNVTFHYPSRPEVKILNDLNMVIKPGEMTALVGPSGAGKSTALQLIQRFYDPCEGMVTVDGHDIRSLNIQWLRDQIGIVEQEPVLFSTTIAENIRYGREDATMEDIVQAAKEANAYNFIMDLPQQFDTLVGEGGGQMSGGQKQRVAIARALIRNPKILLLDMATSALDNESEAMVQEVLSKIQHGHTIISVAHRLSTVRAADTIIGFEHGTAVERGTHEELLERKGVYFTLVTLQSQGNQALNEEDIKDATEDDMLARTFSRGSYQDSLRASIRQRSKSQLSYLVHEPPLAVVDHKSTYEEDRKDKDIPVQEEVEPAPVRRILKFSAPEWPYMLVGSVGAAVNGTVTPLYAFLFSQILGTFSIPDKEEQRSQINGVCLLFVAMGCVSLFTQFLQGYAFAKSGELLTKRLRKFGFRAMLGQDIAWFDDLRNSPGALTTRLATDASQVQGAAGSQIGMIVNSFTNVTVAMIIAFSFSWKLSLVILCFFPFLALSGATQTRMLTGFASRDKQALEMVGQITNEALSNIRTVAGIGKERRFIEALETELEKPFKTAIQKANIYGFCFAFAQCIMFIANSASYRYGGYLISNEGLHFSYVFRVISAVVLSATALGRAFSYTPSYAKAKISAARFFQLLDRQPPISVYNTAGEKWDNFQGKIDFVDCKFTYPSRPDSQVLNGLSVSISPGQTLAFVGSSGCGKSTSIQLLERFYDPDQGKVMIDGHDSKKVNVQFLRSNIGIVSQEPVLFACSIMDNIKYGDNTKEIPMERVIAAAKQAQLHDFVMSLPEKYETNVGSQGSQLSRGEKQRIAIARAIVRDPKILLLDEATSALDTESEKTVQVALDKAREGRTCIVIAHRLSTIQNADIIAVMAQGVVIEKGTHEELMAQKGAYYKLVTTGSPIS

| Structure (SMILES) | inhibition at 1 h, 1 μM [1, 6] [%] | inhibition at 1 h, 10 μM [1, 6] [%] | inhibition at 1 h, 1 μM [2] [%] | inhibition at 1 h, 10 μM [2] [%] | inhibition at 1 h, 1 μM [3] [%] | inhibition at 1 h, 10 μM [3] [%] | inhibition at 1 h, 1 μM [4, 7] [%] | inhibition at 1 h, 10 μM [4, 7] [%] | inhibition at 1 h, 1 μM [5, 6] [%] | inhibition at 1 h, 10 μM [5, 6] [%] | inhibition at 1 h, 1 μM [1] [%] | inhibition at 1 h, 10 μM [1] [%] | inhibition at 1 h, 1 μM [4] [%] | inhibition at 1 h, 10 μM [4] [%] | inhibition at 1 h, 1 μM [5] [%] | inhibition at 1 h, 10 μM [5] [%] |
| --- | --- | --- | --- | --- | --- | --- | --- | --- | --- | --- | --- | --- | --- | --- | --- | --- |
| COC(=O)N[C@H](C(=O)N[C@@H](Cc1ccccc1)[C@@H](O)CN(Cc1ccc(-c2ccccn2)cc1)NC(=O)[C@@H](NC(=O)OC)C(C)(C)C)C(C)(C)C [Atazanavir, atazanavir] | > 50 | > 50 | < 50 | > 50 | < 50 | > 50 | < 50 | > 50 | < 50 | > 50 | – | – | – | – | – | – |
| C[C@@H](Oc1cc(-c2cnn(C3CCNCC3)c2)cnc1N)c1c(Cl)ccc(F)c1Cl [Crizotinib, crizotinib] | < 50 | > 50 | < 50 | < 50 | < 50 | < 50 | < 50 | > 50 | < 50 | > 50 | – | – | – | – | – | – |
| OC(Cn1cncn1)(Cn1cncn1)c1ccc(F)cc1F [Fluconazole, fluconazole] | < 50 | < 50 | < 50 | < 50 | < 50 | < 50 | < 50 | < 50 | < 50 | < 50 | – | – | – | – | – | – |
| CC(=O)N1CCN(c2ccc(OCC3COC(Cn4ccnc4)(c4ccc(Cl)cc4Cl)O3)cc2)CC1 (centres unmarked) [Ketoconazole, ketoconazole] | < 50 | > 50 | < 50 | > 50 | < 50 | > 50 | < 50 | < 50 | < 50 | < 50 | – | – | – | – | – | – |
| Cc1c(O)cccc1C(=O)N[C@@H](CSc1ccccc1)[C@H](O)CN1C[C@H]2CCCC[C@H]2C[C@H]1C(=O)NC(C)(C)C [Nelfinavir, nelfinavir] | < 50 | > 50 | < 50 | > 50 | < 50 | > 50 | < 50 | > 50 | < 50 | > 50 | – | – | – | – | – | – |
| CC(C)NCC(O)COc1cccc2ccccc12 (centres unmarked) [Propranolol, propranolol] | < 50 | < 50 | < 50 | < 50 | < 50 | < 50 | < 50 | < 50 | < 50 | < 50 | – | – | – | – | – | – |
| O=c1c(O)c(-c2ccc(O)c(O)c2)oc2cc(O)cc(O)c12 [Quercetin, quercetin] | < 50 | < 50 | < 50 | < 50 | < 50 | < 50 | < 50 | > 50 | < 50 | < 50 | – | – | – | – | – | – |
| C=C[C@H]1C[N@@]2CC[C@H]1C[C@@H]2[C@@H](O)c1ccnc2ccc(OC)cc12 [Quinidine, quinidine] | < 50 | < 50 | < 50 | < 50 | < 50 | < 50 | < 50 | < 50 | < 50 | < 50 | – | – | – | – | – | – |
| S=P(N1CC1)(N1CC1)N1CC1 [Thiotepa, thiotepa] | – | – | < 50 | < 50 | < 50 | < 50 | – | – | – | – | < 50 | < 50 | < 50 | < 50 | < 50 | < 50 |
| Cc1c(C)c2c(c(C)c1O)CCC(C)(COc1ccc(CC3SC(=O)NC3=O)cc1)O2 (centres unmarked) [Troglitazone, troglitazone] | > 50 | > 50 | > 50 | > 50 | < 50 | > 50 | < 50 | > 50 | > 50 | > 50 | – | – | – | – | – | – |
| CC[C@]1(O)C[C@@H]2CN(CCc3c([nH]c4ccccc34)[C@@](C(=O)OC)(c3cc4c(cc3OC)N(C)[C@H]3[C@@](O)(C(=O)OC)[C@H](OC(C)=O)[C@]5(CC)C=CCN6CC[C@]43[C@@H]65)C2)C1 [Vinblastine, vinblastine] | < 50 | > 50 | < 50 | < 50 | < 50 | < 50 | < 50 | < 50 | < 50 | > 50 | – | – | – | – | – | – |
